From patent US11932624B2, “MDM2 degraders and uses thereof” (Kymera Therapeutics, Inc., priority 2020, dated 2024)

Tested on: RS411 cells
Experiment: Cell Viability CTG Assay (CellTiter Glo) in RS411 cells
Format: cell-based
Details: Homo sapiens, RS4-11, 24 h, duration 1 day
How it was run: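 RS411 cells at 1000 cells/well were exposed to compound (top final 10 μM, 3-fold, 11 doses; 0.2% DMSO) at 37 °C, 5% CO2 for 1-4 days. Viability was read by CellTiter Glo luminescence after 10 min at RT. IC50 is reported as letter-code bins.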

| Compound | IC50 |
| --- | --- |
| Cn1c(=O)n(C2CCC(=O)NC2=O)c2cccc(/C=C/C3CCN(C[C@H]4CC[C@H](CNC(=O)[C@@H]5NC6(CCCCC6)[C@@]6(C(=O)Nc7cc(Cl)ccc76)[C@H]5c5cccc(Cl)c5F)CC4)CC3)c21 (stereo partly drawn) [I-118] | 50 to 100 nM |
| O=C1CCN(c2cnc3cc(C#CC4CCN(C[C@H]5CC[C@H](NC(=O)[C@@H]6NC7(CCCCC7)[C@@]7(C(=O)Nc8cc(Cl)ccc87)[C@H]6c6cccc(Cl)c6F)CC5)CC4)ccn23)C(=O)N1 [I-119] | < 50 nM |
| Cn1c(=O)n(C2CCC(=O)NC2=O)c2ccc(C#CCCCNC(=O)[C@H]3CC[C@H](N(C)C(=O)[C@@H]4NC5(CCCCC5)[C@@]5(C(=O)Nc6cc(Cl)ccc65)[C@H]4c4cccc(Cl)c4F)CC3)cc21 (stereo partly drawn) [I-120] | > 1000 nM |
| Cn1c(=O)n(C2CCC(=O)NC2=O)c2ccc(CCCN3CCN(Cc4ccc(NC(=O)[C@@H]5NC6(CCCCC6)[C@@]6(C(=O)Nc7cc(Cl)ccc76)[C@H]5c5cccc(Cl)c5F)cc4)CC3)cc21 (stereo partly drawn) [I-121] | < 50 nM |
| Cn1c(=O)n(C2CCC(=O)NC2=O)c2ccc(C#CC3CN(C[C@H]4C[C@H](NC(=O)[C@@H]5NC6(CCC(C)(C)CC6)[C@@]6(C(=O)Nc7cc(Cl)ccc76)[C@H]5c5cccc(Cl)c5F)C4)C3)cc21 (stereo partly drawn) [I-122] | < 50 nM |
| CN1[C@@H](C(=O)N[C@H]2CC[C@H](CN3CCC(C#Cc4ccc5c(c4)n(C)c(=O)n5C4CCC(=O)NC4=O)CC3)CC2)[C@H](c2cccc(Cl)c2F)[C@]2(C(=O)Nc3cc(Cl)ccc32)C12CCC(C)(C)CC2 (stereo partly drawn) [I-123] | < 50 nM |

Further lines, results first:

| IC50 | Compound |
| --- | --- |
| > 1000 nM | CN1[C@@H](C(=O)N[C@H]2C[C@@](C)(O)C2)[C@H](c2cccc(Cl)c2F)[C@]2(C(=O)N(CCCCCCCC#Cc3ccc4c(c3)n(C)c(=O)n4C3CCC(=O)NC3=O)c3cc(Cl)ccc32)C12CCCCC2 (stereo partly drawn) [I-124] |
| < 50 nM | Cn1c(=O)n(C2CCC(=O)NC2=O)c2ccc(CCCCCNC[C@H]3CC[C@H](NC(=O)[C@@H]4NC5(CCCCC5)[C@@]5(C(=O)Nc6cc(Cl)ccc65)[C@H]4c4cccc(Cl)c4F)CC3)cc21 (stereo partly drawn) [I-125] |
| < 50 nM | Cn1c(=O)n(C2CCC(=O)NC2=O)c2ccc(CCCCCNCc3ccc(NC(=O)[C@@H]4NC5(CCCCC5)[C@@]5(C(=O)Nc6cc(Cl)ccc65)[C@H]4c4cccc(Cl)c4F)cc3)cc21 (stereo partly drawn) [I-126] |
| > 1000 nM | C#CCCCCCCCC1N(c2ccc(C(=O)NC)cc2OC)C(=O)[C@H]2[C@H](c3cccc(Cl)c3F)[C@@](C#N)(c3ccc(Cl)cc3F)[C@H](CC(C)(C)C)N12 (stereo partly drawn) [I-127, 4-[(5S,6R,7S,7aR)-7-(3-chloro-2-fluoro-phenyl)-6-(4-chloro-2-fluoro-phenyl)-6-cyano-5-(2,2-dimethylpropyl)-3-non-8-ynyl-1-oxo-3,5,7,7a-tetrahydropyrrolo[1,2-c]imidazol-2-yl]-3-methoxy-N-methyl-benzamide] |
| > 1000 nM | C#CCCCCCCCN1C(=O)[C@@]2(c3ccc(Cl)cc31)[C@@H](c1cccc(Cl)c1F)[C@H](C(=O)N[C@H]1C[C@@](C)(O)C1)N(C)C21CCCCC1 [I-128, (3′R,4'S,5′R)-6″-chloro-4′-(3-chloro-2-fluorophenyl)-N-((1s,3S)-3-hydroxy-3-methylcyclobutyl)-1′-methyl-1″-(non-8-yn-1-yl)-2″-oxodispiro[cyclohexane-1,2′-pyrrolidine-3′,3″-indoline]-5′-carboxamide] |
| > 1000 nM | C#CCCCCCCCN1C(=O)[C@@]2(c3ccc(Cl)cc31)[C@@H](c1cccc(Cl)c1F)[C@H](C(=O)O)N(C)C21CCCCC1 [I-129, (3′R,4'S,5′R)-6″-chloro-4′-(3-chloro-2-fluorophenyl)-1′-methyl-1″-(non-8-yn-1-yl)-2″-oxodispiro[cyclohexane-1,2′-pyrrolidine-3′,3″-indoline]-5′-carboxylic acid] |
